From patent US20240197742A1, “Therapeutic Combinations of a CD19 Inhibitor and a BTK Inhibitor” (Acerta Pharma B.V., priority 2015, published 2024)

Legend:
[1] = test system: BCR activation markers CD69 and CD86; test: In vivo potency: expression of BCR activation markers after IgM stimulation; conditions: mice gavaged, 3 hours post-dose, BCR stimulated with IgM; versus Formula (10)
Procedure: Mice were gavaged at increasing drug concentration and sacrificed at one time point (3 hours post-dose). BCR is stimulated with IgM and the expression of activation markers CD69 and CD86 are monitored by flow cytometry to determine EC50 values.
CD86 and CD69 are cell surface proteins that are BCR activation markers. […] BCR was stimulated with IgM and the expression of activation marker CD69 and CD86 are monitored by flow cytometry to determine EC50 values.

[2] = test system: KPC derived mouse pancreatic cancer cells; test: Orthotopic pancreatic cancer model; type: in vivo; conditions: Formula (2) 15 mg/kg/BID given orally
Procedure: In this study, KPC derived mouse pancreatic cancer cells (KrasG12D;Trp53R172H;Pdx1-Cre) were injected into the pancreases.
Single cell suspensions from tumor samples. Mouse tumor tissue was collected and stored in PBS/0.1% soybean trypsin inhibitor prior to enzymatic dissociation. Samples were finely minced with a scissors and mouse tissue was transferred into DMEM containing 1.0 mg/mL collagenase IV (Gibco), 0.1% soybean trypsin inhibitor, and 50 U/ml DNase (Roche) and incubated at 37° C. for 30 min. with constant stirring while human tissue was digested in 2.0 mg/ml collagenase IV, 1.0 mg/ml hyluronidase, 0.1% soybean trypsin inhibitor, and 50 U/ml DNase for 45 minutes. Suspensions were filtered through a 100 micron filter and washed with FACS buffer (PBS/0.5% BSA/2.0 mM EDTA) prior to staining. Two million total cells were stained with antibodies as indicated. Intracellular detection of FoxP3 was achieved following permeabilization with BD Perm Buffer III (BD Biosciences) and eBioscience Fix/Perm respectively. Following surface staining, samples were acquired on a BD Fortessa and analyzed using FlowJo (Treestar) software.

CXCL12 and CCL2 = test: Plasma chemokines in CLL patients; type: in vivo, human; conditions: plasma of treated CLL patients
[3] = test system: MDSC (monocytic) and NK cells; test: Flow cytometry of peripheral blood cell subsets in CLL patients; type: in vivo, human; conditions: patients with decreasing ALC %, doses including 100 mg BID, 200 mg QD, 400 mg QD
Procedure: PBMCs were stained with monoclonal antibodies conjugated to fluorescent tags (flourochromes) to identify cell subsets via flow cytometry. Non-viable cells were excluded from the analysis using the dye 7-aminoactinomycin D (7-AAD). To produce the metric of percent change, the following steps were taken. First, each cell subset was defined by hierarchical flow cytometry gating. Then, the change in frequency (between day 1 and day 28) was calculated for each cell subset. MDSC subsets were measured as a % of all myeloid cells. T cell subsets were measured as a % of all CD3^+ cells, and NK cells were measured as a % of all live CD45^+ cells. […] A cycle is 28 days. […] This may include patients who had quickly resolving lymphocytosis and those with no initial lymphocytosis. […] This may include patients who had quickly resolving lymphocytosis and those having no initial lymphocytosis. The effects in FIG. 52 to FIG. 55 are observed in multiple cohorts, at doses including 100 mg BID, 200 mg QD, and 400 mg QD. In FIG. 56 and FIG. 57, the effects on NK cells and MDSC cells are compared to a number of other markers versus % change in ALC at C1D28 and C2D28. These other markers include CD4+ T cells, CD8+ T cells, CD4+/CD8+ T cell ratio, NK-T cells, PD-1+CD4+ T cells, and PD-1+CD8+ T cells. The effects on NK cells and MDSC cells are observed to be much more pronounced than on any of these other markers.

[4] = test system: 80 known pharmacologic targets such as G-protein-coupled receptors, nuclear receptors, proteases, and ion channels; test: Binding assays with 80 known pharmacologic targets; conditions: screened at 10 μM
NK cells = test: Whole blood NK cell degranulation with obinutuzumab-opsonised MEC-1 cells; type: cell-based, human; conditions: 1 hour pretreatment (10, 1, 0.1 μM), MEC-1 opsonised with obinutuzumab 1 μg/mL, 4 hours, n=3
Procedure: Degranulation in whole blood was performed as follows. […] Exponentially growing cells were used. On the day of the experiment, 8 mL of blood was drawn from a normal volunteer into a test tube containing desirudin to obtain a final concentration of 50 μg/mL. A white blood cell (WBC) count of whole blood was performed. […] The ibrutinib control and two blinded BTK inhibitors were diluted in X-VIVO 15 serum-free hematopoietic cell medium (Lonza Group, Ltd.) to concentrations of 200 μM, 20 μM and 2 μM. 170 μL aliquots of unmanipulated whole blood were incubated with 10 μL BTK inhibitors or X-VIVO 15 medium for one hour into a plate. […] The samples were placed in a 5% CO2 incubator for 4 hours at 37° C.
After 4 hours, the samples were mixed gently and 50 μL aliquots were removed from each well and placed in fluorescence-activated cell sorting (FACS) test tubes. A 20 μL aliquot of anti-CD56-APC antibody and anti-CD107a-PE antibody was added. The samples were incubated for 20 minutes at room temperature in the dark. An aliquot of 2 mL of FACS lysing solution (BD Biosceinces) was added. The samples were again incubated for 5 minutes, and then centrifuged at 2000 rpm for 5 minutes. Supernatant was discarded and the cell pellet was resuspended in 500 μL of PBS. The samples were analyzed on the flow cytometer for CD107a^+ NK cells (CD56^+).

B cell receptor = test: Whole blood potency: CD69 on CD19+ B cells after anti-human IgD; type: cell-based; conditions: blood from four healthy donors, 2 hours with compound, anti-human IgD 10 μg/mL 18 hours, read-out: EC50, CD69 on gated CD19+ B cells in whole blood
EGFR = EGFR (Homo sapiens, UniProt P00533); test: EGF receptor phosphorylation in A431 cells (phosphoflow); conditions: 10 μM; A431 human epidermoid cancer cell line
EGFR, sequence (P00533 25-1210): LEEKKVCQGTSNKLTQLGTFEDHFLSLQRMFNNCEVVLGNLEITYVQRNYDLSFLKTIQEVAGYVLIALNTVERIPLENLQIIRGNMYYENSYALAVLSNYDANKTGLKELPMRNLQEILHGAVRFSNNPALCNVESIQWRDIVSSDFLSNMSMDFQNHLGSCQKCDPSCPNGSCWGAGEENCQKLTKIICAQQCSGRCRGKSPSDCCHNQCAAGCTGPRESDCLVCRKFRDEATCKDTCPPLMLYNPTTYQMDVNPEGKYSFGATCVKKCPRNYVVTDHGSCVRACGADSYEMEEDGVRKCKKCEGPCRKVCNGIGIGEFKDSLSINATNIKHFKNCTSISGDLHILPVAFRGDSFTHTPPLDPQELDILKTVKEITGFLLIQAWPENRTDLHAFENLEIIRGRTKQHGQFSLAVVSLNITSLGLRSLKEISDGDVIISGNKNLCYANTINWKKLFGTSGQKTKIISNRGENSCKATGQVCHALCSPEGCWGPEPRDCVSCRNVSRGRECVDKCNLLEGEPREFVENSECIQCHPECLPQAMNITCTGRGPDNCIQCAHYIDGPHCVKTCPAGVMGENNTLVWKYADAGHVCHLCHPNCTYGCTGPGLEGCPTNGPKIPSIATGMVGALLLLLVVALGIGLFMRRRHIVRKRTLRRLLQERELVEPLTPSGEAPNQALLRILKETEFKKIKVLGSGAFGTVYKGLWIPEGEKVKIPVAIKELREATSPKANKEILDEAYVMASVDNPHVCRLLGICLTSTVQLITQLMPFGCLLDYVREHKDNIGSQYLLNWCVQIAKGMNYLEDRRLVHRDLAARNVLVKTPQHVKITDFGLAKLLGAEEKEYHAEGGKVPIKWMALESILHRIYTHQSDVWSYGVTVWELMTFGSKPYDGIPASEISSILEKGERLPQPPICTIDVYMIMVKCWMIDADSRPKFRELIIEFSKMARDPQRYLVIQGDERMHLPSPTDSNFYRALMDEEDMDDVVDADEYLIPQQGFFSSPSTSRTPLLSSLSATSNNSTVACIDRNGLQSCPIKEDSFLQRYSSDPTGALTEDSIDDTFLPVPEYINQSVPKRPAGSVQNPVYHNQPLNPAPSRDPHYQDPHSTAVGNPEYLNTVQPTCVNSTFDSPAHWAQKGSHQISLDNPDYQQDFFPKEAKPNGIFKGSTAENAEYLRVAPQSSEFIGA

[5] = test system: pancreatic cancer (KPC mice); test: KPC pancreatic cancer model; type: in vivo
Procedure: The KPC mouse model recapitulates many of the molecular, histopathologic, and clinical features of human disease (Westphalen and Olive, Cancer J. 2012, 18, 502-510). Combination therapy with gemcitabine was also evaluated in this model. Mice were enrolled after identification of spontaneously appearing tumors in the pancreas that were ≥100 mm^3 (as assessed by high-resolution ultrasonography).

[6] = In vitro metabolism in hepatocytes; type: in vitro ADME, and human; conditions: ^4C-labeled Formula (2); mouse, rat, dog, rabbit, monkey, human hepatocytes
Source text: No unique human metabolite was identified. Preliminary evaluations of metabolism in the plasma, bile, and urine of rats, dogs, and monkeys indicated metabolic processes of oxidation, glutathione binding, and hydrolysis.

ID8 ovarian cancer = test: ID8 syngeneic orthotropic ovarian cancer murine model; type: in vivo, mouse; conditions: 15 mg/kg/BID given orally
Source text: Human ovarian cancer models, including the ID8 syngeneic orthotropic ovarian cancer model and other animal models, are described in Fong and Kakar, J. Ovarian Res. 2009, 2, 12; Greenaway, et al., Gynecol. Oncol. 2008, 108, 385-94; Urzua, et al., Tumour Biol. 2005, 26, 236-44; Janat-Amsbury, et al., Anticancer Res. 2006, 26, 3223-28; Janat-Amsbury, et al., Anticancer Res. 2006, 26, 2785-89. […] The results of the study are shown in FIG. 13, FIG. 14, FIG. 15, FIG. 16, FIG. 17, FIG. 18, FIG. 19, and FIG. 20.

[7] = Formula (2) 15 mg/kg BID orally

CC#CC(=O)N1CCC[C@H]1c1nc(-c2ccc(C(=O)Nc3ccccn3)cc2)c2c(N)nccn12 [Formula (2), (S)-4-(8-amino-3-(1-(but-2-ynoyl)pyrrolidin-2-yl)imidazo[1,5-α]pyrazin-1-yl)-N-(pyridin-2-yl)benzamide]
in vivo potency at inhibiting expression of activation markers CD69 and CD86 [1]: more potent
tumor burden [2]: reduction in tumor burden
CCL2 levels (CXCL12 and CCL2): significant decrease
CXCL12 levels (CXCL12 and CCL2): significant decrease
% change in MDSC (monocytic) level over 28 days versus % ALC change ([3]; C1D28 and C2D28): increasing MDSC (monocytic) %
% change in NK cell level over 28 days versus % ALC change ([3]; C1D28 or C2D28): increasing NK cell %
activity in binding assays [4]: significant activity only against the A3 adenosine receptor
reduction of obinutuzumab-stimulated NK cell degranulation (CD56+/CD107a+ NK cells) (NK cells): minimal effect
EC50 (B cell receptor): 8.2 nM
inhibition of in vitro EGFR phosphorylation (EGFR): no inhibition
CD8+ cells in tumor tissues [5, 7]: significant increase
immunosuppressive MDSCs (Gr1+Ly6CHi) in tumor tissues [5, 7]: significantly reduced
immunosuppressive TAMs (CD11b+Ly6ClowF4/80+Csf1r+) in tumor tissues [5, 7]: significantly reduced
immunosuppressive Tregs (CD4+CD25+FoxP3+) in tumor tissues [5, 7]: significantly reduced
survival at day 14 [5, 7]: 6/6
survival at day 28 [5, 7]: 5/6
tumor volume, day 28 average ([5]; Formula (2) 15 mg/kg BID orally (N=6), day 28): 272 mm^3
tumor volume, predose average ([5]; cohort treated with Formula (2) 15 mg/kg BID orally (N=6), predose): 165 mm^3
metabolites in hepatocytes [6]: two mono-oxidized metabolites and a glutathione conjugate
CD8+ T cells (ID8 ovarian cancer): increase
immunosuppressive tumor associated Tregs (ID8 ovarian cancer): significant reduction
B regulatory cells (Bregs) (ID8 ovarian cancer; tumor-bearing mice): significant reduction
immunosuppressive tumor associated lymphocytes (ID8 ovarian cancer; tumor-bearing mice): significant reduction
total B cells (ID8 ovarian cancer; tumor-bearing mice): significant reduction
ID8 ovarian cancer growth (ID8 ovarian cancer; versus vehicle): impairs
